Patent US11535597B2, “Photoreactive ligands and uses thereof” (The Scripps Research Institute, priority 2017, dated 2022)

Test system: proteins in HEK293T cells
Assay: MS-based mapping of FFF probe-modified peptides (isoTOP, sites of labeling)
Type: binding, human
Protocol: Preparation and analysis was adapted from methods previously reported. In brief, for global mapping of fragment probe-modified peptides, separate 10 cm dishes of cells were treated with probes (200-250 μM) in 3.0 mL of DMEM (serum-free) and (if applicable) competitor ligands, proteomes harvested and subjected to click chemistry conditions with either light or heavy isotopically labeled biotin-TEV-azide (10 μL of 5 mM stocks in DMSO, final concentration=100 μM), TCEP, ligand and CuSO4 as detailed above. The samples were allowed to react for 1 h at which point the samples were centrifuged (16,000 g, 5 min, 4° C.). The resulting pellets were sonicated in ice-cold methanol (500 μL) and the resuspended light- and heavy-labeled samples were then combined and centrifuged (16,000 g, 5 min, 4° C.). The pellets were then solubilized in PBS containing 1.2% SDS (1 mL) with sonication and heating (5 min, 95° C.). Samples were transferred to falcon tubes containing DPBS (5 mL), to which a 100 μL of streptavidin-agarose beads slurry was added. After incubation, the beads (3 hr) were pelleted by centrifugation (1,400 g, 3 min) and were washed (2×10 mL PBS and 2×10 mL water). The beads were transferred to eppendorf tubes with 1 mL DPBS, centrifuged (1,400 g, 3 min), and resuspended in PBS containing 6 M urea. To this was added 10 mM DTT (25 μL of a 200 mM stock in water) and the beads were incubated at 65° C. for 15 mins. 20 mM iodoacetamide (25 μL of a 400 mM stock in water) was then added and allowed to react at 37° C. for 30 mins with shaking. The bead mixture was diluted with 900 μL PBS, pelleted by centrifugation (1,400 g, 3 min), and resuspended in 200 μL 2M urea (DPBS) containing trypsin and CaCl2 as described above. The beads were separated from the digest by centrifugation (1,000 g, 1 min), washed (2×1 mL PBS and 2×1 mL water) and then transferred to fresh eppendorfs with 1 mL water. The washed beads were washed once further in 150 μL TEV buffer (50 mM Tris, pH 8, 0.5 mM EDTA, 1 mM DTT) by centrifugation (1,400 g, 3 min) and the resuspended in 150 μL TEV buffer. 5 μL TEV protease (80 μM) was added and the reactions were rotated overnight at 29° C. The TEV digest was separated from the beads by centrifugation (1,400 g, 3 min) and the beads were washed once with water (100 μL). The samples were then acidified to a final concentration of 5% (v/v) formic acid and stored at −80° C. prior to analysis.
The resulting probe-modified peptides were collected for MS analysis, which was performed as described above with differences in the salt bumps applied in the chromatographic gradients which in this case were 0%, 30%, 60%, 90% and 100% NH4OAc (500 μM). The protein identification searches of the MS data were performed with the following changes applied to identify the peptides modified with the corresponding fragment probe and the cleaved TEV tag. All amino acids were considered as possible residues for modification. To facilitate the computational searches, sets of up to 3 amino acids were searched using ProLuCID and filtered with DTASelect as described above. […] The isoTOP ratios for probe labeled peptides were quantified using the in-house software CIMAGE.
For each protein in the site-of-labeling dataset, the UniProtKB accession number was used to map and collect relevant structures from the RCSB Protein Data Bank (PDB) fulfilling the following criteria: structures determined by X-ray crystallography, wild-type protein, Homo sapiens as the sole source organism. […] Fpocket 2.0 was used to detect potential binding pockets for the resultant structures with all parameters set at recommended default. Pockets with volume less than 500 Å^3 were removed from output prior to further analysis. Residues surrounding fpocket predicted binding pockets for each protein were collected to determine the number of residues overlapping with isoTOP peptides.

[1] = protein PSMA2 Proteasome subunit alpha type-2 (P25787)
[2] = protein PSMA2 Proteasome subunit alpha type-2, residues of the probe-labeled peptide

C#CCCC1(CCC(=O)NC2N=C(c3ccccc3)c3ccccc3NC2=O)N=N1 (centres unmarked) [probe 2, 3-(3-(But-3-yn-1-yl)-3H-diazirin-3-yl)-N-(2-oxo-5-phenyl-2,3-dihydro-1H-benzo[e][1,4]diazepin-3-yl)propanamide]
Labeled Peptide of GSTP1 Glutathione S-transferase P (Accession P09211, residues of probe-labeled peptide, family Enzymes): 56-71 | Labeled Peptide of HNRNPH3 Heterogeneous nuclear ribonucleoprotein H3 (Accession P31942, residues of probe-labeled peptide, family Transcription factors, Regulators): 324-343 | Labeled Peptide of FUS RNA-binding protein FUS (Accession P35637, residues of probe-labeled peptide, family Transcription factors, Regulators): 335-348 | Labeled Peptide (GSTP1 Glutathione S-transferase P, residues of probe-modified peptide): 56-71 | Labeled Peptide (HNRNPL Heterogeneous nuclear ribonucleoprotein L, residues of probe-modified peptide): 399-411 | Labeled Peptide (MESDC2 LDLR chaperone MESD (Q14696), residues of the probe-labeled peptide): 113-127 | Labeled Peptide (NOC2L (Q9Y3T9), residues of the probe-labeled peptide): 591-606 | Labeled Peptide (P09211 GSTP1 Glutathione S-transferase P): 56-71 | Labeled Peptide (residues) of PPP1CC Serine/threonine-protein phosphatase PP1-gamma cat (P36873, peptide IYGFYDECK, PDB 4UT2): 133-141 | Labeled Peptide (P55263 ADK Adenosine kinase): 209-224 | Labeled Peptide (residues) of PPP1CA Serine/threonine-protein phosphatase PP1-alpha cat (P62136, peptide IYGFYDECK, PDB 4XPN): 133-141 | Labeled Peptide (protein ADK (P55263), residues of probe-labeled peptide): 209-224 | Labeled Peptide (protein ADK Adenosine kinase, residues of probe-labeled peptide): 209-224 | Labeled Peptide (protein BSG Basigin (P35613), residues of probe-labeled peptide): 228-243 | Labeled Peptide (protein CLPTM1 Cleft lip and palate transmembrane protein 1 (O96005), residues of probe-labeled peptide): 548-562 | Labeled Peptide (protein EIF3E Eukaryotic translation initiation factor 3 submit (P60228), residues of probe-labeled peptide): 173-191 | Labeled Peptide (protein EIF3H Eukaryotic translation initiation factor 3 submit (O15372), residues of probe-labeled peptide): 207-220 | Labeled Peptide (protein EQSR1 RNA-binding protein EWS (Q01844), residues of probe-labeled peptide): 269-292 | Labeled Peptide (protein FARSB Phenylalanine--tRNA ligase beta subunit, residues of probe-labeled peptide): 518-530 | Labeled Peptide (protein FARSB Phenylalanini--tRNA ligase beta subunit (Q9NSD9), residues of probe-labeled peptide): 518-530 | Labeled Peptide (protein P62917 RPL8 60S ribosomal protein L8): 129-144 | Labeled Peptide (protein PFDN5 Prefoldin subunit 5 (Q99471)): 20-37 | Labeled Peptide (protein PPP1CA Serine/threonine-protein phosphatase PP1-alpha cat, residues of the probe-labeled peptide): 133-141 | Labeled Peptide (protein PPP1CA Serine/threonine-protein phosphate PP1-alpha cat (P62136)): 133-141 | Labeled Peptide (protein PPP1CB Serine/threonine-protein phosphate PP1-alpha cat (P62140)): 132-140 | Labeled Peptide (protein PPP1CC Serine/threonine-protein phosphatase PP1-gamma cat, residues of the probe-labeled peptide): 133-141 | Labeled Peptide (protein PPP1CC Serine/threonine-protein phosphate PP1-gamma cat (P36873)): 133-141 | Labeled Peptide [1]: 144-159 | Labeled Peptide [2]: 144-159 | Labeled Peptide (protein PSMD11 26S proteasome non-ATPase regulatory subunit 11 (O00231)): 164-175 | Labeled Peptide (protein PTCD3 Pentatricopeptide repeat-containing protein 3, mit (Q96EY7)): 119-126 | Labeled Peptide (protein Q6NUK1 SCLC25A24 Calcium-binding mitochondrial carrier protein SCaM): 454-469 | Labeled Peptide (protein Q15631 TSN Translin): 205-215 | Labeled Peptide (protein Q92804 TAF15 TATA-binding protein-associated factor 2N): 284-297 | Labeled Peptide (protein QKI Protein quaking (Q96PU8)): 192-205 | Labeled Peptide (protein RUVBL1 RuvB-like 1, residues of the probe-labeled peptide): 318-333 | Labeled Peptide (protein RUVBL1 RuvB-like 1, residues of the probe-modified peptide): 91-107 | Labeled Peptide (protein TSN Translin, residues of the probe-modified peptide): 205-215

C#CCCC1(CCC(=O)Nc2ccc3oc(=O)ccc3c2)N=N1 [probe 3, 3-(3-(But-3-yn-1-yl)-3H-diazirin-3-yl)-N-(2-oxo-2H-chromen-6-yl)propanamide]
Labeled Peptide of H2AFZ Histone H2A.Z (Accession P0C0S5, residues of probe-labeled peptide, family Transcription factors, Regulators): 47-75 | Labeled Peptide of GRWD1 Glutamate-rich WD repeat-containing protein 1 (Accession Q9BQ67, residues of probe-labeled peptide, family Uncategorized): 183-198 | Labeled Peptide (H2AFZ Histone H2A.Z, residues of probe-modified peptide): 47-75 | Labeled Peptide (HSD17B4 Peroxisomal multifunctional enzyme type 2, residues of probe-modified peptide): 169-183 | Labeled Peptide (LMNA Prelamin-A/C (P02545), residues of the probe-labeled peptide): 172-180 | Labeled Peptide (NONO (Q15233), residues of the probe-labeled peptide): 127-135 | Labeled Peptide (P00387 CYB5R3 NADH-cytochrome b5 reductase 3): 235-241 | Labeled Peptide (residues) of PGK1 Phosphoglycerate kinase 1 (P00558, peptide QIVWNGPVGVFEWEAFAR, PDB 2WZB): 333-350 | Labeled Peptide (P12532 CKMT1B Creatine kinase U-type, mitochondrial): 257-269 | Labeled Peptide (P38117 ETFB Electron transfer flavoprotein subunit beta): 36-51 | Labeled Peptide (P51659 HSD17B4 multifunctional enzyme type 2): 169-183 | Labeled Peptide (PARP1 (P09874), residues of the probe-labeled peptide): 954-1000 | Labeled Peptide (Q08211 DHX9 ATP-dependent RNA helicase A): 448-456 | Labeled Peptide (protein ABHD10 (Q9NUJ1), residues of probe-labeled peptide): 285-300 | Labeled Peptide (protein ACTL6A (O96019), residues of probe-labeled peptide): 25-34 | Labeled Peptide (protein ANAPC7 (Q9UJX3), residues of probe-labeled peptide): 407-424 | Labeled Peptide (protein CDK5RAP3 CDK5 regulatory subuni-associated protein 3 (Q96JB5), residues of probe-labeled peptide): 351-367 | Labeled Peptide (protein CKMT1B Creatine kinase U-type, mitochondria, residues of probe-labeled peptide): 257-269 | Labeled Peptide (protein CKMT1B Creatine kinase U-type, motochondrial (P12532), residues of probe-labeled peptide): 257-269 | Labeled Peptide (protein CYB5R3 NADH-cytochrome b5 reductase 3 (P00387), residues of probe-labeled peptide): 235-241 | Labeled Peptide (protein CYB5R3 NADH-cytochrome b5 reductase 3, residues of probe-labeled peptide): 235-241 | Labeled Peptide (protein DDX17 Propable ATP-dependent RNA helicase DDX17 (Q92841), residues of probe-labeled peptide): 536-547 | Labeled Peptide (protein DHX9 ATP-dependent RNA helicase A (Q08211), residues of probe-labeled peptide): 448-456 | Labeled Peptide (protein DHX9 ATP-dependent RNA helicase A, residues of probe-labeled peptide): 448-456 | Labeled Peptide (protein EEF1G Elongation factor 1-gamma (P26641), residues of probe-labeled peptide): 58-85 | Labeled Peptide (protein ETFB Electron transfer flavoprotein subunit beta (P38117), residues of probe-labeled peptide): 36-51 | Labeled Peptide (protein ETFB Electron transfer flavoprotein subunit beta, residues of probe-labeled peptide): 36-51 | Labeled Peptide (protein NONO Non-POU domain-containing octamer-binding protein, residues of the probe-labeled peptide): 127-135 | Labeled Peptide (protein PGK1 Phosphoglycerate kinase 1 (P00558)): 333-350 | Labeled Peptide (protein PGK1 Phosphoglycerate kinase 1, residues of the probe-labeled peptide): 333-350 | Labeled Peptide [1]: 19-39 | Labeled Peptide [2]: 19-39 | Labeled Peptide (protein Q96I99 SUCLG2 Succinyl-CoA ligase): 151-160 | Labeled Peptide (protein Q01105 SET Protein SET): 91-122 | Labeled Peptide (protein RBMXL1 RNA binding motif protein, X-linked-like-1 (Q96E39)): 245-252

C#CCCC1(CCC(=O)NCCc2ccc3c(c2)OCO3)N=N1 [probe 15, N-(2-(Benzo[d][1,3]dioxol-5-yl)ethyl)-3-(3-(but-3-yn-1-yl)-3H-diazirin-3-yl)propanamide]
Labeled Peptide (MCM4 (P33991), residues of the probe-labeled peptide): 502-516 | Labeled Peptide (NUDT12 (Q9BQG2), residues of the probe-labeled peptide): 143-166 | Labeled Peptide (protein FDFT1 Squalene synthase (P37268), residues of probe-labeled peptide): 78-92 | Labeled Peptide (protein FDFT1 Squalene synthase, residues of probe-labeled peptide): 78-92
